Results: patent US20210386367A1, “DEVICES AND SYSTEMS FOR GASTROINTESTINAL MICROBIOME DETECTION AND MANIPULATION” (Progenity, Inc., priority 2018, published 2021)
≈ marks a conversion by molar mass, not a printed value.

Key:
[1] = system: E. coli spontaneous mutants; settings: E. coli ATCC 25922; CLSI QC range shown in parentheses; cited from earlier work
[2] = system: Streptococcus spp. spontaneous mutants; settings: S. pneumoniae ATCC 49619; CLSI QC range shown in parentheses; cited from earlier work
[3] = system: E. coli spontaneous mutants; test: Broth microdilution MIC of spontaneous mutants; assay type: cell-based, Escherichia coli
Procedure: (§1) Select isolates were subcultured onto agar containing drug at the selection concentration, were identified by MALDI, and were frozen for broth microdilution MIC testing as described below.
(§2) To determine whether colonies growing on drug selection plates had elevated MIC values to the selecting antibiotic, susceptibility testing by broth microdilution was conducted on isolated mutants following methodology recommended by CLSI (1), (2), and (3) “Performance Standards for Antimicrobial Susceptibility Testing; Twenty-Eighth Informational Supplement.,” CLSI document M100-S28, 2018.
(§3) All wells in columns 2 through 12 of a standard 96-well microdilution plate (Costar 3795) were filled with 150 μL of the appropriate diluent. Then, 300 μL of the test agents were added to the wells of column 1 of the plates at […] the highest final concentration to be tested. Serial two-fold dilutions were made across the rows through column 11 using the Biomek 2000. The wells of column 12 contained no drug and served as the growth control wells. This plate served as the “mother plate” from which selected MIC assay plates or “daughter plates” were made.
(§4) 2 μL of drug solution from each well of a mother plate was added to each corresponding well of the daughter plate in a single step. A standardized inoculum of each aerobic test organism was prepared per CLSI methods to equal a 0.5 McFarland standard, followed by a dilution of 1:20 in MHB II. The plates were then inoculated with 10 μL of the diluted inoculum using the Biomek 2000 from low to high drug concentration, resulting in a final concentration of approximately 5×10^5 CFU/mL. An un-inoculated plate was incubated for the purpose of assessing solubility of the drug in the test media.
(§5) The plates for the aerobic tests were stacked 3-4 high, covered with a sterile lid on the top plate, and incubated aerobically at 35° C. for 18-20 hr. The MIC was recorded as the lowest concentration of drug that inhibited visible growth of the organism.

[4] = system: Streptococcus spp. spontaneous mutants; test: organism not typed; assay type: cell-based
Procedure: as §1, §2, §3, §4, §5

[5] = in vivo, po, 10 mg/kg; cited from earlier work
[6] = system: SIBO Bacteria; settings: cited from earlier work
[7] = system: S. pyogenes ATCC 49399; test: Broth microdilution MIC (time-kill study); assay type: cell-based, Streptococcus pyogenes; settings: Streptococcus pyogenes, ATCC49399; S. pyogenes ATCC 49399; read-out: MIC
[8] = system: S. pneumoniae ATCC 49619; test: Broth microdilution MIC (time-kill study); assay type: cell-based, Streptococcus pneumoniae; settings: Streptococcus pneumoniae, ATCC49619; S. pneumoniae ATCC 49619; read-out: MIC
[9] = system: B. vulgatus ATCC 8482; test: Broth microdilution MIC (time-kill study); assay type: cell-based, Bacteroides vulgatus; settings: Phocaeicola vulgatus, ATCC8482; B. vulgatus ATCC 8482; read-out: MIC
[10] = system: E. coli ATCC 35218 (TEM-1 β-lactamase producer); test: Broth microdilution MIC (time-kill study); assay type: cell-based, Escherichia coli; settings: Escherichia coli, ATCC35218
[11] = system: B. fragilis ATCC 25285; test: Broth microdilution MIC (time-kill study); assay type: cell-based, Bacteroides fragilis; settings: Bacteroides fragilis, ATCC25285; B. fragilis MMX 123 ATCC 25285; read-out: MIC
[12] = system: B. ovatus MMX 3503; test: Broth microdilution MIC (time-kill study); assay type: cell-based, Bacteroides ovatus; settings: Bacteroides ovatus, MMX3503; B. ovatus MMX 3504 (so in the source); read-out: MIC
[13] = system: Clostridium spp.; test: Agar dilution MIC, 10 clinical isolates; assay type: cell-based
[14] = system: B. fragilis ATCC 25285; settings: B. fragilis MMX 123 ATCC 25285; cited from earlier work
[15] = system: S. agalactiae ATCC 13813; test: Broth microdilution MIC (time-kill study); assay type: cell-based, Streptococcus agalactiae; settings: Streptococcus agalactiae, ATCC13813
[16] = system: E. coli MMX 1312; test: Broth microdilution MIC (time-kill study); assay type: cell-based, Escherichia coli; settings: Escherichia coli, MMX1312; E. coli MMX 1312; read-out: MIC
[17] = system: E. coli ATCC 25922; test: Broth microdilution MIC (time-kill study); assay type: cell-based, Escherichia coli; settings: Escherichia coli, ATCC25922; E. coli ATCC 25922; read-out: MIC

CN(C)[C@@H]1C(O)=C(C(N)=O)C(=O)[C@@]2(O)C(O)=C3C(=O)c4c(O)cccc4[C@@](C)(O)[C@H]3C[C@@H]12 [TET]
MIC, CLSI QC range [1]: (0.5-2) μg/mL | MIC, CLSI QC range [2]: (0.06-0.5) μg/mL | MIC ([3]; E. coli ATCC 25922, selected on rifaximin 4X MIC, Colony A): 0.5 µg/mL | MIC ([3]; E. coli ATCC 25922, selected on rifaximin 4X MIC, Colony B): 1 µg/mL | MIC ([3]; E. coli ATCC 25922, selected on rifaximin 8X MIC, Colony A): 1 µg/mL | MIC ([3]; E. coli ATCC 25922, selected on rifaximin 8X MIC, Colony B): 1 µg/mL | MIC ([3]; E. coli ATCC 25922 Parent (Table 52)): 1 µg/mL | MIC ([3]; E. coli ATCC 35218, selected on rifaximin 4X MIC, Colony A): 2 µg/mL | MIC ([3]; E. coli ATCC 35218, selected on rifaximin 4X MIC, Colony B): 1 µg/mL | MIC ([3]; E. coli ATCC 35218, selected on rifaximin 8X MIC, Colony A): 0.5 µg/mL | MIC ([3]; E. coli ATCC 35218, selected on rifaximin 8X MIC, Colony B): 2 µg/mL | MIC ([3]; E. coli ATCC 35218 Parent (Table 52)): 1 µg/mL | MIC ([3]; E. coli MMX 1312, selected on ceftriaxone 4X MIC, Colony A): >16 µg/mL | MIC ([3]; E. coli MMX 1312, selected on ceftriaxone 4X MIC, Colony B): >16 µg/mL | MIC ([3]; E. coli MMX 1312, selected on ceftriaxone 4X MIC, Colony C): >16 µg/mL | MIC ([3]; E. coli MMX 1312, selected on ceftriaxone 8X MIC, Colony A): >16 µg/mL | MIC ([3]; E. coli MMX 1312, selected on ceftriaxone 8X MIC, Colony B): >16 µg/mL | MIC ([3]; E. coli MMX 1312, selected on ceftriaxone 8X MIC, Colony C): >16 µg/mL | MIC ([3]; E. coli MMX 1312, selected on rifaximin 4X MIC, Colony A): >16 µg/mL | MIC ([3]; E. coli MMX 1312, selected on rifaximin 4X MIC, Colony B): >16 µg/mL | MIC ([3]; E. coli MMX 1312, selected on rifaximin 8X MIC, Colony A): >16 µg/mL | MIC ([3]; E. coli MMX 1312, selected on rifaximin 8X MIC, Colony B): >16 µg/mL | MIC ([3]; E. coli MMX 1312 Parent): >16 µg/mL | MIC ([3]; E. coli MMX 1312 Parent (Table 49)): >16 µg/mL | MIC ([3]; E. coli MMX 1312 Parent (Table 52)): >16 µg/mL | MIC ([3]; E. coli MMX 1312 mutant selected on meropenem 4X MIC, colony A): >16 µg/mL | MIC ([3]; E. coli MMX 1312 mutant selected on meropenem 4X MIC, colony B): >16 µg/mL | MIC ([3]; E. coli MMX 1312 mutant selected on meropenem 4X MIC, colony C): 4 µg/mL | MIC ([3]; E. coli MMX 1312 mutant selected on meropenem 8X MIC, colony A): >16 µg/mL | MIC ([3]; E. coli MMX 1312 mutant selected on meropenem 8X MIC, colony B): >16 µg/mL | MIC ([3]; E. coli MMX 1312 mutant selected on meropenem 8X MIC, colony C): >16 µg/mL | MIC ([4]; S. agaloctiae ATCC 13813, selected on rifaximin 4X MIC, Colony A): 0.12 µg/mL (≈ 0.27 µM) | MIC ([4]; S. agaloctiae ATCC 13813, selected on rifaximin 4X MIC, Colony B): 0.12 µg/mL (≈ 0.27 µM) | MIC ([4]; S. agaloctiae ATCC 13813, selected on rifaximin 8X MIC, Colony A): 0.12 µg/mL (≈ 0.27 µM) | MIC ([4]; S. agaloctiae ATCC 13813, selected on rifaximin 8X MIC, Colony B): 0.25 µg/mL (≈ 0.563 µM) | MIC ([4]; S. agaloctiae ATCC 13813 Parent): 0.12 µg/mL (≈ 0.27 µM) | MIC ([4]; S. pneumoniae ATCC 49619, selected on rifaximin 4X MIC, Colony A): 0.06 µg/mL (≈ 0.135 µM) | MIC ([4]; S. pneumoniae ATCC 49619, selected on rifaximin 4X MIC, Colony B): 0.06 µg/mL (≈ 0.135 µM) | MIC ([4]; S. pneumoniae ATCC 49619, selected on rifaximin 8X MIC, Colony A): 0.06 µg/mL (≈ 0.135 µM) | MIC ([4]; S. pneumoniae ATCC 49619, selected on rifaximin 8X MIC, Colony B): 0.06 µg/mL (≈ 0.135 µM) | MIC ([4]; S. pneumoniae ATCC 49619 Parent): 0.12 µg/mL (≈ 0.27 µM) | MIC ([4]; S. pyogenes ATCC 49399, selected on rifaximin 4X MIC, Colony A): 0.12 µg/mL (≈ 0.27 µM) | MIC ([4]; S. pyogenes ATCC 49399, selected on rifaximin 4X MIC, Colony B): 0.12 µg/mL (≈ 0.27 µM) | MIC ([4]; S. pyogenes ATCC 49399, selected on rifaximin 8X MIC, Colony A): 0.12 µg/mL (≈ 0.27 µM) | MIC ([4]; S. pyogenes ATCC 49399, selected on rifaximin 8X MIC, Colony B): 0.12 µg/mL (≈ 0.27 µM) | MIC ([4]; S. pyogenes ATCC 49399 Parent): 0.12 µg/mL (≈ 0.27 µM)

C[C@@H](O)[C@H]1C(=O)N2C(C(=O)O)=C(S[C@@H]3CN[C@H](C(=O)Nc4cccc(C(=O)O)c4)C3)[C@H](C)[C@H]12 [ertapenem]
Rat oral exposure (Dose) [5]: 0.39 μM*h at 10 | activity against SIBO organisms [6]: active against SIBO organisms

Cc1ncc([N+](=O)[O-])n1CCO [metronidazole, Metronidazole]
MIC [7]: > 32 µg/mL | MIC [8]: > 32 µg/mL | MIC [9]: 0.5 µg/mL (≈ 2.92 µM) | MIC [10]: > 32 µg/mL | MIC [11]: 0.5 µg/mL (≈ 2.92 µM) | MIC [12]: 0.5 µg/mL (≈ 2.92 µM) | relative activity among drugs tested [13]: meropenem and metronidazole had similar activity | CLSI QC range (MIC) [14]: (0.25-2) μg/mL | MIC [15]: > 32 µg/mL | MIC [16]: > 32 µg/mL | MIC [17]: > 32 µg/mL
